Measured values as given in US11447500B2, “Thienopyridine derivatives and pharmaceutical composition comprising same” (WELLMARKER BIO CO., LTD., priority 2018, dated 2022).
Structures can show the parent of a compound that is named as a salt.

How the values were obtained:
HT29 cells = experiment: Cytotoxicity MTS assay, HT29; format: cell-based; conditions: Homo sapiens, HT-29, 72 hours
Method: (§1) In order to confirm the specific cytotoxicity of the drugs, the cultured cells were treated with 0.05% trypsin/EDTA (0.5% trypsin EDTA (10×), Product No.: 15400-054, GIBCO) to detach them from the culture dish, and 3,000 cells (KM12C) or 2,000 cells (HT29, Colo 320 HSR) were dispensed into each well.
(§2) After 24 hours, sample compounds were dissolved in DMSO (Product No.: D8418-250ML, SIGMA) to make 10 mM stock solutions. As the sample compounds, the compounds synthesized in the examples of the present invention and the compounds of the comparative examples were used.
(§3) The cells were treated with the sample compound dilutions, and cultured in a 5% CO2 incubator at 37° C. for 72 hours.
(§4) Thereafter, 20 μL of MTS solution (CellTiter™ 96 Aqueous One Solution Cell Proliferation Assay, Product No.: G3581, Promega) was dispensed into each well and mixed well, and the cells were incubated for 1 to 4 hours at 37° C. in a 5% CO2 incubator.

RON kinase = target: T1, RON kinase (Homo sapiens, UniProt Q04912); experiment: RON kinase enzyme inhibitory activity, FRET (TR-FRET) technique; format: biochemical; conditions: 60 min reaction
T1 construct: purchased Carna Bioscience
Method: The enzyme inhibitory activity (IC50) of the thienopyridine derivative was measured using FRET (fluorescence resonance energy transfer) technique. RON kinase (Carna Bioscience) was diluted with a kinase assay buffer (50 mM HEPES pH 7.5, 1 mM EGTA, 10 mM MgCl2, 2 mM DTT, and 0.01% Tween-20) to a concentration of 2× (0.4 nM) the final reaction concentration and the dilution was added to a 384-well plate at 5 μL/well. As sample compounds, the compounds synthesized in the examples of the present invention and the compounds of the comparative examples were used. The sample compounds were respectively dissolved in 100% DMSO to obtain 1 mM stock solutions, which were then subjected to eight 10-fold serial dilutions. The sample compounds were diluted with the kinase assay buffer to a concentration of 4× the final reaction concentration, and the dilutions were added to the 384-well plate at 2.5 μL/well. The plate was incubated at room temperature for 15 minutes. Next, 0.25 M ATP solution (Sigma Aldrich) was diluted with the kinase reaction buffer to a concentration of 4× (60 μM) the final reaction concentration, and a tyrosine peptide substrate (Perkin-Elmer) was diluted therein to a concentration of 4× (400 nM) the final reaction concentration. The dilution was added to the 384-well plate at 2.5 μL/well. Then, the 384-well plate was incubated at room temperature and the reaction was allowed to proceed for 60 minutes. After 60 minutes, EDTA (Sigma Aldrich) was diluted with TR-FRET detection buffer (Perkin-Elmer) to a concentration of 4× (40 mM) the final reaction concentration. A europium-labeled anti-phosphotyrosine antibody (Perkin-Elmer) was diluted in the above EDTA dilution to a concentration of 4× (8 nM) the final reaction concentration to prepare a stop solution of the RON kinase reaction. The stop solution was added to the 384-well plate at 10 μL/well to terminate the reaction, and the plate was incubated at room temperature for 60 minutes. Thereafter, the plate was read on Victor X5 plate reader (Perkin-Elmer). At this time, the excitation wavelength was 340 nm and the emission wavelengths were 620 nm and 665 nm. The IC50 values of the sample compounds were determined using GraphPad Prism™ 5 by expressing the emission energy at 665 nm as a function of the sample compound concentration.

[1] = system: RON-mutated (Δ160) HT-29 colon cancer cell line; experiment: Cell killing efficacy, trypan blue exclusion assay, HT-29; format: cell-based; conditions: HT29 cell, 48 hours
Method: (§5) Two colon cancer cell lines, RON-activated KM12C (80015, KCLB, MEM+10% FBS) and RON-mutated (Δ160) HT-29 (30038, KCLB, RPMI+10% FBS) were prepared in 6-well plates at 5×10^4 cells/well, respectively. After 24 hours, while freshly changing the medium, the sample compounds were added to the wells at a concentration of 1 μM or 5 μM and the plates were allowed to stand for 48 hours.
(§6) As the sample compounds, the compounds synthesized in the examples of the present invention and the compounds of the comparative examples were used.
(§7) After 48 hours, the cell suspensions were collected and centrifuged (1,500 rpm, 4 min.) to obtain the cells, and live cells and dead cells were quantitated (n=2) through a trypan blue (15250-061, Gibco) exclusion assay. The statistical analysis was performed using Excel™ T-test from Microsoft.
(§8) The cell death rates of the compounds of Examples and Comparative Examples were respectively measured and the results are shown in Table 4 as relative ratios to Comparative Example 1.

[2] = system: RON-activated KM12C colon cancer cell line; experiment: Cell killing efficacy, trypan blue exclusion assay, KM12C; format: cell-based; conditions: 48 hours
Method: as §5, §6, §7, §8

KM12C cells = experiment: Cytotoxicity MTS assay, KM12C; format: cell-based; conditions: Homo sapiens, 72 hours
Method: as §1, §2, §3, §4

T1 sequence (Q04912 25-1400): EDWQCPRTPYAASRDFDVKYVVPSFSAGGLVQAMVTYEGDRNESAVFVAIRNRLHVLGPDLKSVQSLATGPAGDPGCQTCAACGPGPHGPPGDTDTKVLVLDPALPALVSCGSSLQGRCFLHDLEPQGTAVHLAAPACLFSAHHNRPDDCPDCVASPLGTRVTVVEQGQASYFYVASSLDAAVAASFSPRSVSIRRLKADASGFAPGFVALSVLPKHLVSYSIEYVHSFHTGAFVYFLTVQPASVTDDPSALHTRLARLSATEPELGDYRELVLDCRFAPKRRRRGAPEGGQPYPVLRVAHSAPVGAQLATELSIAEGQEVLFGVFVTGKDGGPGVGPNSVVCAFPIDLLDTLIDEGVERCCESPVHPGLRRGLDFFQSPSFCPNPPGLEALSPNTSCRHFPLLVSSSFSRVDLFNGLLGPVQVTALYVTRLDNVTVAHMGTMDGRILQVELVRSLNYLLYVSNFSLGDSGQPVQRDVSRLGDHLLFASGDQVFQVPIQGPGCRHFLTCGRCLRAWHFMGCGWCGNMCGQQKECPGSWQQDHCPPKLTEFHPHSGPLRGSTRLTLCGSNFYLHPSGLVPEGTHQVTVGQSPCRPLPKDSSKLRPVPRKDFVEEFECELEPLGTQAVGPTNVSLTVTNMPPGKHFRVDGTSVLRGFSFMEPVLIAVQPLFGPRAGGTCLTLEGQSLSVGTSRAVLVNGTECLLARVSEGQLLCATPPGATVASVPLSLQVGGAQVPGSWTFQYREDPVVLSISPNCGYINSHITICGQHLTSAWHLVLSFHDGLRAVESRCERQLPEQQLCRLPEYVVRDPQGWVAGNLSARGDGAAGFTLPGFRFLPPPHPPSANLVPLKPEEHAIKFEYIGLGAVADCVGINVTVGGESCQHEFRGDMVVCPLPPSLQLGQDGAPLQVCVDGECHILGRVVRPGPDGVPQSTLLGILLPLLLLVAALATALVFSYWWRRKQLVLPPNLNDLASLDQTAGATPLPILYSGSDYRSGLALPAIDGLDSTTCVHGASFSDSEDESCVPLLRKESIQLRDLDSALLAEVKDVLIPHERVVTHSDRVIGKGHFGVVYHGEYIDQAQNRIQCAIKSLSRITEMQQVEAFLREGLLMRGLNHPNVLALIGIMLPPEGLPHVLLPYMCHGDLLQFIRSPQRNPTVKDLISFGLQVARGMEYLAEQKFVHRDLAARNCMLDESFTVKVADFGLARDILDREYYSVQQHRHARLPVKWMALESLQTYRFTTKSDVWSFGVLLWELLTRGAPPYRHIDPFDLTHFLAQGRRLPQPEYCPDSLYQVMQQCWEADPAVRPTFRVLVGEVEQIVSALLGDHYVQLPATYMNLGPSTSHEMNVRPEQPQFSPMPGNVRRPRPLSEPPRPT

Structure (SMILES) | IC50 (HT29 cells) [pM] | IC50 (RON kinase) [pM] | Cell death rate (Relative to Comp. Ex. 1) ([1]; 1 μM) | Cell death rate (Relative to Comp. Ex. 1) ([1]; 5 μM) | Cell death rate (Relative to Comp. Ex. 1) ([2]; 1 μM) | Cell death rate (Relative to Comp. Ex. 1) ([2]; 5 μM) | IC50 (KM12C cells) [pM]
COCCNCc1ccc(-c2cc3nccc(Oc4ccc(NC(=O)c5c(C)ccn(-c6ccccc6)c5=O)cc4F)c3s2)nc1.Cl [Example 28, N-(3-fluoro-4-{[-2-(5-{[(2-methoxyethyl)amino]methyl}pyridin-2-yl)thieno[3,2-b]pyridin-7-yl]oxy}phenyl)-4-methyl-2-oxo-1-phenyl-1,2-dihydropyridine-3-carboxamide Hydrochloride] | 908000 | 560 | x 1.46 | x 2.65 | x 1.22 | x 1.58 | 59000
COCCNCc1ccc(-c2cc3nccc(Oc4ccc(NC(=O)c5c(OC)ccn(-c6ccc(F)cc6)c5=O)cc4F)c3s2)nc1.Cl [Example 2, N-(3-fluoro-4-{[2-(5-{[(2-methoxyethyl)amino]methyl}pyridin-2-yl)thieno[3,2-b]pyridin-7-yl]oxy}phenyl)-1-(4-fluorophenyl)-4-methoxy-2-oxo-1,2-dihydropyridine-3-carboxamide Hydrochloride] | – | 100 | x 0.62 | x 1.15 | x 1.33 | x 0.74 | –
CCOc1ccn(-c2ccc(F)cc2)c(=O)c1C(=O)Nc1ccc(Oc2ccnc3cc(-c4ccc(CN(C)CCOC)cn4)sc23)c(F)c1 [Example 30, 4-ethoxy-N-(3-fluoro-4-{[2-(5-{[(2-methoxyethyl)(methyl)amino]methyl}pyridin-2-yl)thieno[3,2-b]pyridin-7-yl]oxy}phenyl)-1-(4-fluorophenyl)-2-oxo-1,2-dihydropyridine-3-carboxamide Hydrochloride] | – | 880 | x 1.34 | x 1.07 | x 2.48 | x 2.06 | –
COc1ccc2c(Oc3ccc(NC(=O)c4c(C)n(CC(C)(C)O)n(-c5ccccc5)c4=O)cc3F)ccnc2c1 [Comp. Ex. 2, N-(3-fluoro-4-(7-methoxyquinolin-4-yloxy)phenyl)-1-(2-hydroxy-2-methylpropyl)-5-methyl-3-oxo-2-phenyl-2,3-dihydro-1H-pyrazole-4-carboxamide, reference compound] | – | 2890 | x 0.59 | x 0.32 | x 0.38 | x 0.31 | –
CCOc1ccn(-c2ccccc2)c(=O)c1C(=O)Nc1ccc(Oc2ccnc3cc(-c4ccc(CN5CCN(C)CC5)cn4)sc23)c(F)c1.Cl [Example 34, Hydrochloride] | 129000 | 230 | – | – | – | – | 6000
COCCNCc1ccc(-c2cc3nccc(Oc4ccc(NC(=O)c5c(OC)ccn(-c6ccccc6)c5=O)cc4F)c3s2)nc1.Cl [Example 3, N-(3-fluoro-4-{[2-(5-{[(2-methoxyethyl)amino]methyl}pyridin-2-yl)thieno[3,2-b]pyridin-7-yl]oxy}phenyl)-4-methoxy-2-oxo-1-phenyl-1,2-dihydropyridine-3-carboxamide Hydrochloride] | – | 420 | x 1.80 | x 2.22 | x 0.66 | x 1.26 | –
COCCNCc1ccc(-c2cc3nccc(Oc4ccc(NC(=O)c5cccn(-c6ccc(F)cc6)c5=O)cc4F)c3s2)nc1.Cl [Example 4, N-(3-fluoro-4-{[2-(5-{[(2-methoxyethyl)amino]methyl}pyridin-2-yl)thieno[3,2-b]pyridin-7-yl]oxy}phenyl)-1-(4-fluorophenyl)-2-oxo-1,2-dihydropyridine-3-carboxamide Hydrochloride] | – | 680 | x 3.51 | x 3.63 | x 0.59 | x 0.80 | –
COCCNCc1ccc(-c2cc3nccc(Oc4ccc(NC(=O)c5c(OC)ccn(-c6ccc(F)cc6)c5=O)cc4Cl)c3s2)nc1.Cl [Example 9, N-(3-chloro-4-{[2-(5-{[(2-methoxyethyl)amino]methyl}pyridin-2-yl)thieno[3,2-b]pyridin-7-yl]oxy}phenyl)-1-(4-fluorophenyl)-4-methoxy-2-oxo-1,2-dihydropyridine-3-carboxamide Hydrochloride] | – | 80 | x 4.08 | x 3.53 | x 2.26 | x 2.87 | –
CCOc1ccn(-c2ccc(Cl)cc2)c(=O)c1C(=O)Nc1ccc(Oc2ccnc3cc(-c4ccc(CNCCOC)cn4)sc23)c(F)c1.Cl [Example 8, 1-(4-chlorophenyl)-4-ethoxy-N-(3-fluoro-4-{[2-(5-{[(2-methoxyethyl)amino]methyl}pyridin-2-yl)thieno[3,2-b]pyridin-7-yl]oxy}phenyl)-2-oxo-1,2-dihydropyridine-3-carboxamide Hydrochloride] | – | 10 | x 2.24 | x 2.52 | x 0.92 | x 1.19 | –
COCCNCc1ccc(-c2cc3nccc(Oc4ccc(NC(=O)c5c(OC)ccn(-c6ccc(F)cc6)c5=O)cc4)c3s2)nc1.Cl [Example 11, 1-(4-fluorophenyl)-4-methoxy-N-(4-{[2-(5-{[(2-methoxyethyl)amino]methyl}pyridin-2-yl)thieno[3,2-b]pyridin-7-yl)oxy)phenyl)-2-oxo-1,2-dihydropyridine-3-carboxamide Hydrochloride] | – | 260 | x 1.16 | x 0.94 | x 0.99 | x 1.65 | –
CCOc1ccn(-c2ccc(F)cc2)c(=O)c1C(=O)Nc1ccc(Oc2ccnc3cc(-c4ccc(CNCCOC)cn4)sc23)c(F)c1.Cl [Example 7, 4-ethoxy-N-(3-fluoro-4-{[2-(5-{[(2-methoxyethyl)amino]methyl}pyridin-2-yl)thieno[3,2-b]pyridin-7-yl]oxy}phenyl)-1-(4-fluorophenyl)-2-oxo-1,2-dihydropyridine-3-carboxamide Hydrochloride] | – | 280 | x 2.97 | x 2.90 | x 2.38 | x 1.32 | –
COCCNCc1ccc(-c2cc3nccc(Oc4ccc(NC(=O)c5c(C)cnn(-c6ccccc6)c5=O)cc4F)c3s2)nc1.Cl [Example 18, N-(3-fluoro-4-{[2-(5-{[(2-methoxyethyl)amino]methyl}pyridin-2-yl)thieno[3,2-b]pyridin-7-yl]oxy}phenyl)-5-methyl-3-oxo-2-phenyl-2,3-dihydropyridazine-4-carboxamide Hydrochloride] | – | 770 | x 1.33 | x 1.37 | x 0.56 | x 1.09 | –
